The text below walks through data of publication PMC13252604, “First Generation Proteolysis Targeting Chimeras (PROTACs) for the Treatment of Progeria” (Advanced Science, 2026).

A short description of data set [1]: Parallel artificial membrane permeability assay (PAMPA). The format is in vitro ADME. Particulars: read-out: P, permeability. On the procedure: Pharmacokinetic properties, including solubility and membrane permeability, are critical in drug discovery but can pose challenges in PROTAC development […] The calculated logarithm of the partition coefficient between n‐octanol and water (clogP), determined using ACDLabs Percepta Software, indicated an acceptable lipophilicity for PROTAC 2 (clogP = 3.94), aligning with Lipinski's “rule of 5” (clogP<5). […] Compound permeability was assessed using the parallel artificial membrane permeability assay (PAMPA), which measures the ability of compounds to diffuse through a lipid‐infused artificial membrane. […] The cellular uptake of compound 2 was further confirmed by fluorescence microscopy, leveraging the intrinsic fluorescence of pomalidomide‐bearing derivatives (Figure S4).
Background: PAMPA measures passive passage across an artificial lipid membrane.

Data set [2] deals with HGADFN167 Lmna^G608G/G608G fibroblasts. As to the kind of experiment: Cell cycle analysis by flow cytometry. Particulars: HGADFN167, 5 µM, 20 days. In kind it is cell-based, human. As for the experimental part: Supporting Figure S5. Cell cycle analysis histogram. Flow cytometry analysis of DNA content showing cell cycle distribution with peaks corresponding to G0/G1 (labeled as M1) and G2/M phases, and an intermediate region representing S phase (S/G2/M are labeled as M2). Human progeroid LmnaG608G/G608G fibroblasts (HGADFN167 cells, from The Progeria Research Foundation) were incubated with 5 μM of compound 2 for 20 days and analyzed for DNA content by flow cytometry in a FACSCalibur Flow cytometer (Becton Dickinson). Images shown correspond to one representative analysis and bar graph represents mean±sem of 2 independent experiments performed in duplicate.
*p<0.05 vs HGADFN167 cells, one-way ANOVA. […]
Cells were harvested by trypsin, centrifuged and washed with PBS. Cells pellets were added with 70% (vol/vol) ice-cold ethanol. […] The mixture was then allowed to incubate for 30min at 37 °C in the dark and samples were finally analysed by FACScalibur (Becton Dickinson) flow cytometer […]
Cells were incubated for 1 h in 1% OsO4 at room temperature and then thoroughly washed with milliQ water. […] The samples were analysed and examined in the transmission electron microscope JEM 1010 at 80 […]
Total RNA of HGPS fibroblasts (HGADFN167) and UCM-18142-treated HGPS fibroblasts were extracted for RNA sequencing. The RNA concentration and integrity were assessed using the Tape Station 4150 system (Agilent). […]
On the technique in general: A flow cytometer gives signals particle by particle.

On to `CC1(C)Oc2cc3oc(=O)ccc3cc2C[C@@H]1OC(=O)CCCCCNc1cccc2c1C(=O)N(C1CCC(=O)NC1=O)C2=O` (some centres unmarked) [compound 2], for which the Papp in data set [1] was 6.7 ×10⁻⁶ cm/s. In addition, in data set [2], the “percentage of cells undergoing replication (phases S/G2/M)” value is reported as “increase”.
